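How tested: cells in 96-well plates exposed to compound for 48 hours at five concentrations. GI50 = concentration required for 50% inhibition of growth.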 Active and inactive are the calls of the source. Rule as the data show it: active = GI50 up to about 1.1 µM and inactive = higher.

Among the test systems are 786-0; A498; CCRF-CEM; HCC 2998; HCT-116; HL-60; HOP-92; M14; NCI-H522; OVCAR-4; OVCAR-5; PC-3; RPMI-8226; SF-539; SK-MEL-2; SK-MEL-5; SR; SW-620; U-251; UO-31.
Holding throughout (experiment): growth of human tumour cells (NCI), 48 h

`Cc1nc2c(-c3ccccc3)[nH]c(C)c2c(=O)o1`: the GI50 with 786-0 was 61.8 µM (inactive); in the assay with A498, 22.1 µM (inactive); in the assay with CCRF-CEM it was > 100 µM (inactive); in the assay on HCC 2998, 57.5 µM (inactive); with HCT-116 it was 45.6 µM (inactive); with HL-60, 15.7 µM (inactive). For the same compound, the GI50 in the assay on HOP-92 is > 100 µM (inactive); in the assay with M14, 53.1 µM (inactive); in the assay on NCI-H522, 19.7 µM (inactive); in the assay on OVCAR-4 it was 70.1 µM (inactive); with OVCAR-5, > 100 µM (inactive); with PC-3, > 100 µM (inactive). Also, the GI50 in the assay with RPMI-8226 was 32.7 µM (inactive); with SF-539, 56.5 µM (inactive); in the assay with SK-MEL-2 it was 46.7 µM (inactive); with SK-MEL-5 it was 13.1 µM (inactive); in the assay on SR, > 100 µM (inactive); in the assay on SW-620 it was > 100 µM (inactive). For the same compound, the GI50 with U-251 was 34.9 µM (inactive); in the assay on UO-31 it was 4.94 µM (inactive).

Turning to `C/C=C(/C)C(=O)O[C@H]1[C@H](O)CC(c2ccc3c(c2O)C(=O)C2=C(O)C4(OC)C(=O)C(C(N)=O)=C(O)[C@H](CC(=O)c5ccccc5O)C4CC2[C@@]3(C)OC)O[C@@H]1C` (stereo not given in full), the GI50 is 0.00479 µM (active) in the assay on 786-0; 0.0422 µM (active) with A498; 0.0281 µM (active) in the assay on CCRF-CEM; 0.0326 µM (active) in the assay on HCC 2998; 0.00121 µM (active) in the assay with HCT-116; 0.0248 µM (active) in the assay with HL-60. The GI50 was 0.0218 µM (active) in the assay with HOP-92; 0.0213 µM (active) in the assay with M14; 0.00557 µM (active) with NCI-H522; 0.0849 µM (active) in the assay with OVCAR-4; 0.0546 µM (active) in the assay with OVCAR-5; 0.00637 µM (active) in the assay on PC-3. Moreover, the GI50 is 0.00785 µM (active) in the assay with RPMI-8226; 0.00611 µM (active) in the assay with SF-539; 0.00621 µM (active) with SK-MEL-2; 0.001 µM (active) in the assay with SK-MEL-5; 0.00426 µM (active) in the assay on SR; 0.00408 µM (active) in the assay with SW-620. Also, the GI50 in the assay with U-251 was 0.00256 µM (active); in the assay with UO-31, 0.041 µM (active).

Consider `Cc1nnc2sc(-c3ccc(-c4ccccc4Cl)o3)nn12`, for which the GI50 with 786-0 was 26.9 µM (inactive); in the assay on A498, 37.2 µM (inactive); in the assay on CCRF-CEM it was 43.6 µM (inactive); in the assay with HCC 2998, 21.8 µM (inactive); in the assay with HCT-116, 19.8 µM (inactive); with HL-60 it was 19.8 µM (inactive). The GI50 is 40.2 µM (inactive) in the assay with HOP-92; 32 µM (inactive) in the assay on M14; 25.4 µM (inactive) in the assay on NCI-H522; 31.8 µM (inactive) with OVCAR-4; > 100 µM (inactive) with OVCAR-5; 37.2 µM (inactive) with PC-3. The GI50 in the assay on RPMI-8226 was 20.4 µM (inactive); with SF-539 it was 19.7 µM (inactive); with SK-MEL-2, 26.1 µM (inactive); with SK-MEL-5, 20.9 µM (inactive); in the assay with SR, 19 µM (inactive); in the assay on SW-620, 20.9 µM (inactive). Further, the GI50 is 32.5 µM (inactive) in the assay on U-251 and 33.7 µM (inactive) with UO-31.

Consider `CCNC(=O)/C(=C/c1ccc(OC)cc1)c1cc(OC)c(OC)c(OC)c1`, for which the GI50 is 8.85 µM (inactive) with 786-0; 14.9 µM (inactive) with A498; 6.79 µM (inactive) with CCRF-CEM; 4.68 µM (inactive) in the assay with HCC 2998; 6.18 µM (inactive) in the assay on HCT-116; 2.96 µM (inactive) in the assay on HL-60. Also, the GI50 was 28.3 µM (inactive) in the assay with HOP-92; 9.29 µM (inactive) in the assay on M14; 4.92 µM (inactive) in the assay on NCI-H522; 68.2 µM (inactive) in the assay on OVCAR-4; 63.8 µM (inactive) with OVCAR-5; 3.52 µM (inactive) in the assay with PC-3. For the same compound, the GI50 in the assay on RPMI-8226 is 14 µM (inactive); in the assay on SF-539 it was 7.87 µM (inactive); in the assay on SK-MEL-2, 7.57 µM (inactive); in the assay on SK-MEL-5, 3.71 µM (inactive); in the assay with SR, 4.17 µM (inactive); in the assay with SW-620, 4.52 µM (inactive). The GI50 in the assay on U-251 was 7.21 µM (inactive); in the assay on UO-31 it was 20.1 µM (inactive).

As to `C/C(=N\NC(=S)N1CCCCC1)c1cccc(C)n1`, the GI50 in the assay on 786-0 was < 0.01 µM (active); in the assay with A498 it was 0.0199 µM (active); in the assay on CCRF-CEM, < 0.0106 µM (active); with HCC 2998, 0.082 µM (active); with HCT-116, < 0.01 µM (active); with HL-60, < 0.01 µM (active). For the same compound, the GI50 in the assay on HOP-92 is 0.169 µM (active); with M14 it was 0.0141 µM (active); in the assay with NCI-H522 it was < 0.01 µM (active); in the assay on OVCAR-4, 36.5 µM (inactive); in the assay on OVCAR-5, 0.149 µM (active); in the assay with PC-3, < 0.01 µM (active). In addition, the GI50 with RPMI-8226 was < 0.01 µM (active); in the assay on SF-539 it was < 0.0404 µM (active); in the assay with SK-MEL-2, 0.515 µM (active); in the assay on SK-MEL-5, < 0.0335 µM (active); in the assay with SR it was < 0.0173 µM (active); in the assay on SW-620 it was < 0.01 µM (active). Moreover, the figures for the GI50 in the assay on U-251 and in the assay with UO-31 were < 0.01 µM (active) and 0.0414 µM (active), respectively.

As to `COC(=O)C1=C(C(=O)Nc2cccnc2Cl)N(c2ccc(OC)cc2[N+](=O)[O-])C(c2ccc(C)cc2)=CC1c1ccc(OC)cc1OC` (stereo not given), the GI50 was 12 µM (inactive) with 786-0; 16.7 µM (inactive) with A498; 4.53 µM (inactive) with CCRF-CEM; 8.61 µM (inactive) in the assay on HCC 2998; 9.98 µM (inactive) in the assay with HCT-116; 4.61 µM (inactive) in the assay on HL-60. Besides, the GI50 with HOP-92 is 31.1 µM (inactive); in the assay on M14, 13.7 µM (inactive); with NCI-H522, 2.59 µM (inactive); in the assay with OVCAR-4 it was 33.6 µM (inactive); in the assay on OVCAR-5 it was 29 µM (inactive); with PC-3, 27.5 µM (inactive). In addition, the GI50 in the assay on RPMI-8226 was 2.37 µM (inactive); in the assay with SF-539 it was 4.76 µM (inactive); with SK-MEL-2 it was 17.9 µM (inactive); in the assay on SK-MEL-5 it was 10 µM (inactive); with SR, 2.85 µM (inactive); with SW-620, 4.66 µM (inactive). The GI50 in the assay with U-251 is 6.41 µM (inactive); in the assay on UO-31 it was 12.4 µM (inactive).

`CCCCCCOc1ccc(C(=O)NO)cc1`: the GI50 in the assay with 786-0 was 3.68 µM (inactive); in the assay on A498 it was 13 µM (inactive); in the assay on CCRF-CEM, 0.362 µM (active); with HCC 2998, 9.25 µM (inactive); in the assay on HCT-116, 8.53 µM (inactive); in the assay on HL-60 it was 1.81 µM (inactive). For the same compound, the GI50 with HOP-92 was 13.9 µM (inactive); in the assay on M14, 11.9 µM (inactive); in the assay with NCI-H522, 3.14 µM (inactive); with OVCAR-4, 5.74 µM (inactive); with OVCAR-5, 11.6 µM (inactive); in the assay on PC-3, 9.51 µM (inactive). For the same compound, the GI50 in the assay on RPMI-8226 is 2.82 µM (inactive); in the assay with SF-539, 11.3 µM (inactive); in the assay on SK-MEL-2 it was 12.4 µM (inactive); in the assay on SK-MEL-5, 15.7 µM (inactive); in the assay with SR, 1.19 µM (inactive); in the assay with SW-620 it was 5.02 µM (inactive). In addition, the GI50 in the assay with U-251 is 10.4 µM (inactive); in the assay on UO-31, 6.08 µM (inactive).

These data come from ChEMBL document CHEMBL1201862, “PubChem BioAssay data set” (2004).
